Results from article PMC9010763 (The Journal of Biological Chemistry, 2022).
Where two headings read alike, the source gives them in different places. Each block holds one molecule with its values, some of them ahead of it.

What was measured:
Assay type in all cases: biochemical
SLC35B1 [1] = molecular target: T1, SLC35B1 (Homo sapiens, UniProt P78383); assay: [α^[…]]ATP uptake competition and counter-exchange, purified protein in PC-liposomes
T1 construct: isoform 1, C-terminal GFP fusion (hSLC35B1-GFP)
T1 sequence (P78383 1-322): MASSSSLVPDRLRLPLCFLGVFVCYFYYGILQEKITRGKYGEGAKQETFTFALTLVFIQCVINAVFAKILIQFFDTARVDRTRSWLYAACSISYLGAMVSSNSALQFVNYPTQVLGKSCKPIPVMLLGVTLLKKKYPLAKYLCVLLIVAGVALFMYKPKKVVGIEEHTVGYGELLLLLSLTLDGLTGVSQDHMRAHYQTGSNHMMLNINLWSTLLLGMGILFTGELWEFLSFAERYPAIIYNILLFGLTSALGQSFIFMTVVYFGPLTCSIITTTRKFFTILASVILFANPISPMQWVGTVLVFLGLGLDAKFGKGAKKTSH

SLC35B1 [2] = molecular target: T1, SLC35B1; assay: inhibition of [α^[…]]ATP uptake at […], purified protein in PC-liposomes; conditions: read-out: % inhibition at 1 mM
SLC35B1 [3] = molecular target: T1, SLC35B1; assay: inhibition of [α^[…]]ATP uptake at […]; counter-exchange and efflux, purified protein in PC-liposomes; conditions: read-out: % inhibition at 1 mM
SLC35B1 [4] = molecular target: T1, SLC35B1; assay: inhibition of [α^[…]]ATP uptake at […]; counter-exchange, purified protein in PC-liposomes; conditions: read-out: % inhibition at 1 mM

Compound: Nc1ncnc2c1ncn2[C@@H]1O[C@H](COP(=O)(O)OP(=O)(O)O)[C@@H](O)[C@H]1O [ADP]
Ki (SLC35B1 [1]; read-out: Ki): 56.1 µM

Compound: Nc1ncnc2c1ncn2[C@@H]1O[C@H](COP(=O)(O)OP(=O)(O)OP(O)(O)=S)[C@@H](O)[C@H]1O [ATPɣ[-S]]
inhibition at 1000 µM (SLC35B1 [2]): > 85%

Compound: Nc1ccn([C@@H]2O[C@H](COP(=O)(O)OP(=O)(O)OP(=O)(O)O)[C@@H](O)[C@H]2O)c(=O)n1 [CTP]
inhibition at 1000 µM (SLC35B1 [3]): 50 to 60%

Compound: Nc1nc2c(ncn2[C@@H]2O[C@H](COP(=O)(O)OP(=O)(O)O)[C@@H](O)[C@H]2O)c(=O)[nH]1 [GDP]
inhibition at 1000 µM (SLC35B1 [3]): 50 to 60%

Compound: O=c1ccn([C@@H]2O[C@H](COP(=O)(O)OP(=O)(O)O)[C@@H](O)[C@H]2O)c(=O)[nH]1 [UDP]
Ki (SLC35B1 [1]): 83 µM

More lines, now with the values ahead:

Ki (SLC35B1 [1]; read-out: Ki): 275 µM
Compound: Nc1nc2c(ncn2[C@@H]2O[C@H](COP(=O)(O)OP(=O)(O)OP(=O)(O)O)[C@@H](O)[C@H]2O)c(=O)[nH]1 [GTP]

inhibition at 1000 µM (SLC35B1 [3]): 70 to 85%
Compound: O=c1ccn([C@@H]2O[C@H](COP(=O)(O)OP(=O)(O)OP(=O)(O)O)[C@@H](O)[C@H]2O)c(=O)[nH]1 [UTP]

inhibition at 1000 µM (SLC35B1 [4]): > 85%
Compound: Nc1ncnc2c1ncn2[C@H]1C[C@H](O)[C@@H](COP(=O)(O)OP(=O)(O)OP(=O)(O)O)O1 [dATP]
